Experimental data published in patent publication US20260070945A1, “MACROCYCLIC IMMUNOMODULATORS” (Bristol-Myers Squibb Company, priority 2022, published 2026).
pIC50: −log10 of the molar value. Where a SMILES comes first, the peptide text is derived from it. Bridges are numbered along the chain shown (N, C = ends). [ ]: non-standard residue; d: D form. The star is where a group is joined. Phe(3-CF3) = N[C@@H](Cc1cccc(C(F)(F)F)c1)C(=O)O; Ala(morpholin-4-yl) = N[C@@H](CN1CCOCC1)C(=O)O; Phe(4-COOH) = N[C@@H](Cc1ccc(C(=O)O)cc1)C(=O)O; Bip = N[C@@H](Cc1ccc(-c2ccccc2)cc1)C(=O)O; NH(CH2)12COOH = O=C(O)CCCCCCCCCCCCN*; Val(3-OH) = CC(C)(O)[C@H](N)C(=O)O; Cha = N[C@@H](CC1CCCCC1)C(=O)O; Cit = NC(=O)NCCC[C@H](N)C(=O)O; Carboxymethyl = O=C(O)C*; NMeA = CN[C@@H](C)C(=O)O; Dab = NCC[C@H](N)C(=O)O

The compounds below were run against T1, PD-1/PD-L1 interaction (PE-labeled human PD-L1-Ig binding to Jurkat cell line over-expressing human PD-1) (Homo sapiens, UniProt Q15116) (assay: Jurkat-PD-1 Cell Binding High-Content Screening Assay (CBA)). Settings: Jurkat-hPD-1 cells, PE-labeled PD-L1-Ig 20 nM final; read-out: Jurkat HPD1 PDL1 IC50.
T1 construct: expressed in transfected cells; host or cells: Jurkat
T1 sequence (Q15116 25-288): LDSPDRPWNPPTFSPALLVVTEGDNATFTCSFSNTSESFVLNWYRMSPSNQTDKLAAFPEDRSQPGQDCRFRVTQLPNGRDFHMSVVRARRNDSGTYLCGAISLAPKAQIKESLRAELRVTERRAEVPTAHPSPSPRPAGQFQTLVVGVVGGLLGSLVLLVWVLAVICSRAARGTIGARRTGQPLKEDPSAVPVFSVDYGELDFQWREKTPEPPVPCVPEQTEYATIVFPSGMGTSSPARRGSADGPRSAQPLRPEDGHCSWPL
In short: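 Jurkat cells overexpressing human PD-1 (8×10^3/well, DMEM + 10% FCS) preincubated with compound 2 h at 37 °C, then PE-labelled human PD-L1-Ig (20 nM final) for 1 h. Cells fixed in paraformaldehyde with Hoechst 33342; bound PD-L1 quantified by high-content imaging.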
`CC(C)C[C@H]1NC(=O)[C@H](C)N(C)C(=O)[C@H](CCC(N)=O)NC(=O)[C@H](Cc2ccc(-c3ccccc3)cc2)NC(=O)[C@H](Cc2ccc(C(=O)O)cc2)NC(=O)[C@H](Cc2cccc(C(F)(F)F)c2)NC(=O)[C@H](CC(=O)O)NC(=O)[C@H](Cc2ccc(OCC(=O)O)cc2)NC(=O)[C@H](Cc2ccc(C(=O)O)cc2)NC(=O)CSC[C@@H](C(=O)N[C@@H](CCN)C(=O)NCCCCCCCCCCCCC(=O)O)NC(=O)[C@H](CO)NC(=O)[C@H](C(C)(C)O)NC(=O)[C@H](CC2CCCCC2)NC(=O)[C@H](CCN)NC1=O` [Example 1144] ({CH2CO}-[Phe(4-COOH)]Y(Carboxymethyl)D[Phe(3-CF3)][Phe(4-COOH)][Bip]Q[NMeA][dL][Dab][Cha][Val(3-OH)]SC[Dab]-{NH(CH2)12COOH}; thioether N-14) gave a pIC50 of 7.85.
`CC(C)C[C@H]1NC(=O)[C@H](C)N(C)C(=O)[C@H](CCC(N)=O)NC(=O)[C@H](Cc2ccc(-c3ccccc3)cc2)NC(=O)[C@H](Cc2ccc(C(=O)O)cc2)NC(=O)[C@H](Cc2cccc(C(F)(F)F)c2)NC(=O)[C@H](CC(=O)O)NC(=O)[C@H](Cc2ccc(OCC(=O)O)cc2)NC(=O)[C@H](Cc2ccc(C(=O)O)cc2)NC(=O)CSC[C@@H](C(=O)N[C@@H](CCN)C(=O)NCCCCCCCCCCCCC(=O)O)NC(=O)[C@H](Cc2c[nH]cn2)NC(=O)[C@H](C(C)(C)O)NC(=O)[C@H](CC2CCCCC2)NC(=O)[C@H](CCN)NC1=O` [Example 1145] ({CH2CO}-[Phe(4-COOH)]Y(Carboxymethyl)D[Phe(3-CF3)][Phe(4-COOH)][Bip]Q[NMeA][dL][Dab][Cha][Val(3-OH)]HC[Dab]-{NH(CH2)12COOH}; thioether N-14) was tested, and the pIC50 was 7.95.
For `CC(C)C[C@H]1NC(=O)[C@H](C)N(C)C(=O)[C@H](CCCNC(N)=O)NC(=O)[C@H](Cc2ccc(-c3ccccc3)cc2)NC(=O)[C@H](Cc2ccc(C(=O)O)cc2)NC(=O)[C@H](Cc2cccc(C(F)(F)F)c2)NC(=O)[C@H](CC(=O)O)NC(=O)[C@H](Cc2ccc(OCC(=O)O)cc2)NC(=O)[C@H](Cc2ccc(C(=O)O)cc2)NC(=O)CSC[C@@H](C(=O)N[C@@H](CCN)C(=O)NCCCCCCCCCCCCC(=O)O)NC(=O)[C@H](CC(=O)O)NC(=O)[C@H](C(C)(C)O)NC(=O)[C@H](CC2CCCCC2)NC(=O)[C@H](CCN)NC1=O` [Example 1146] ({CH2CO}-[Phe(4-COOH)]Y(Carboxymethyl)D[Phe(3-CF3)][Phe(4-COOH)][Bip][Cit][NMeA][dL][Dab][Cha][Val(3-OH)]DC[Dab]-{NH(CH2)12COOH}; thioether N-14), the pIC50 was 7.86.
With `CC(C)C[C@H]1NC(=O)[C@H](C)N(C)C(=O)[C@H](CCCNC(N)=O)NC(=O)[C@H](Cc2ccc(-c3ccccc3)cc2)NC(=O)[C@H](Cc2ccc(C(=O)O)cc2)NC(=O)[C@H](Cc2cccc(C(F)(F)F)c2)NC(=O)[C@H](CC(=O)O)NC(=O)[C@H](Cc2ccc(OCC(=O)O)cc2)NC(=O)[C@H](Cc2ccc(C(=O)O)cc2)NC(=O)CSC[C@@H](C(=O)N[C@@H](CCN)C(=O)NCCCCCCCCCCCCC(=O)O)NC(=O)[C@H](CCC(=O)O)NC(=O)[C@H](C(C)C)NC(=O)[C@H](CC2CCCCC2)NC(=O)[C@H](CCN)NC1=O` [Example 1147] ({CH2CO}-[Phe(4-COOH)]Y(Carboxymethyl)D[Phe(3-CF3)][Phe(4-COOH)][Bip][Cit][NMeA][dL][Dab][Cha]VEC[Dab]-{NH(CH2)12COOH}; thioether N-14) the pIC50 was 7.88.
With `CC(C)C[C@H]1NC(=O)[C@H](C)N(C)C(=O)[C@H](CCCNC(N)=O)NC(=O)[C@H](Cc2ccc(-c3ccccc3)cc2)NC(=O)[C@H](Cc2ccc(C(=O)O)cc2)NC(=O)[C@H](Cc2cccc(C(F)(F)F)c2)NC(=O)[C@H](CC(=O)O)NC(=O)[C@H](Cc2ccc(OCC(=O)O)cc2)NC(=O)[C@H](Cc2ccc(C(=O)O)cc2)NC(=O)CSC[C@@H](C(=O)N[C@@H](CCN)C(=O)NCCCCCCCCCCCCC(=O)O)NC(=O)[C@H](CO)NC(=O)[C@H](C(C)(C)O)NC(=O)[C@H](CC2CCCCC2)NC(=O)[C@H](CCN)NC1=O` [Example 1148] ({CH2CO}-[Phe(4-COOH)]Y(Carboxymethyl)D[Phe(3-CF3)][Phe(4-COOH)][Bip][Cit][NMeA][dL][Dab][Cha][Val(3-OH)]SC[Dab]-{NH(CH2)12COOH}; thioether N-14) the pIC50 was 7.75.
`CC(C)C[C@H]1NC(=O)[C@H](C)N(C)C(=O)[C@H](CCCNC(N)=O)NC(=O)[C@H](Cc2ccc(-c3ccccc3)cc2)NC(=O)[C@H](Cc2ccc(C(=O)O)cc2)NC(=O)[C@H](Cc2cccc(C(F)(F)F)c2)NC(=O)[C@H](CC(=O)O)NC(=O)[C@H](Cc2ccc(OCC(=O)O)cc2)NC(=O)[C@H](Cc2ccc(C(=O)O)cc2)NC(=O)CSC[C@@H](C(=O)N[C@@H](CCN)C(=O)NCCCCCCCCCCCCC(=O)O)NC(=O)[C@H](Cc2c[nH]cn2)NC(=O)[C@H](C(C)(C)O)NC(=O)[C@H](CC2CCCCC2)NC(=O)[C@H](CCN)NC1=O` [Example 1149] ({CH2CO}-[Phe(4-COOH)]Y(Carboxymethyl)D[Phe(3-CF3)][Phe(4-COOH)][Bip][Cit][NMeA][dL][Dab][Cha][Val(3-OH)]HC[Dab]-{NH(CH2)12COOH}; thioether N-14) was tested, and the pIC50 was 7.82.
`CC(C)C[C@H]1NC(=O)[C@H](C)N(C)C(=O)[C@H](CCC(N)=O)NC(=O)[C@H](Cc2ccc(-c3ccccc3)cc2)NC(=O)[C@H](Cc2ccc(C(=O)O)cc2)NC(=O)[C@H](Cc2cccc(C(F)(F)F)c2)NC(=O)[C@H](CC(=O)O)NC(=O)[C@H](Cc2ccc(OCC(=O)O)cc2)NC(=O)[C@H](CN2CCOCC2)NC(=O)CSC[C@@H](C(=O)N[C@@H](CCN)C(=O)NCCCCCCCCCCCCC(=O)O)NC(=O)[C@H](CC(=O)O)NC(=O)[C@H](C(C)(C)O)NC(=O)[C@H](CC2CCCCC2)NC(=O)[C@H](CCN)NC1=O` [Example 1150] ({CH2CO}-[Ala(morpholin-4-yl)]Y(Carboxymethyl)D[Phe(3-CF3)][Phe(4-COOH)][Bip]Q[NMeA][dL][Dab][Cha][Val(3-OH)]DC[Dab]-{NH(CH2)12COOH}; thioether N-14) was tested, and the pIC50 was 7.80.
`CC(C)C[C@H]1NC(=O)[C@H](C)N(C)C(=O)[C@H](CCC(N)=O)NC(=O)[C@H](Cc2ccc(-c3ccccc3)cc2)NC(=O)[C@H](Cc2ccc(C(=O)O)cc2)NC(=O)[C@H](Cc2cccc(C(F)(F)F)c2)NC(=O)[C@H](CC(=O)O)NC(=O)[C@H](Cc2ccc(OCC(=O)O)cc2)NC(=O)[C@H](CN2CCOCC2)NC(=O)CSC[C@@H](C(=O)N[C@@H](CCN)C(=O)NCCCCCCCCCCCCC(=O)O)NC(=O)[C@H](CCC(=O)O)NC(=O)[C@H](C(C)C)NC(=O)[C@H](CC2CCCCC2)NC(=O)[C@H](CCN)NC1=O` [Example 1151] ({CH2CO}-[Ala(morpholin-4-yl)]Y(Carboxymethyl)D[Phe(3-CF3)][Phe(4-COOH)][Bip]Q[NMeA][dL][Dab][Cha]VEC[Dab]-{NH(CH2)12COOH}; thioether N-14) was tested, and the pIC50 was 8.21.
`CC(C)C[C@H]1NC(=O)[C@H](C)N(C)C(=O)[C@H](CCC(N)=O)NC(=O)[C@H](Cc2ccc(-c3ccccc3)cc2)NC(=O)[C@H](Cc2ccc(C(=O)O)cc2)NC(=O)[C@H](Cc2cccc(C(F)(F)F)c2)NC(=O)[C@H](CC(=O)O)NC(=O)[C@H](Cc2ccc(OCC(=O)O)cc2)NC(=O)[C@H](CN2CCOCC2)NC(=O)CSC[C@@H](C(=O)N[C@@H](CCN)C(=O)NCCCCCCCCCCCCC(=O)O)NC(=O)[C@H](CO)NC(=O)[C@H](C(C)(C)O)NC(=O)[C@H](CC2CCCCC2)NC(=O)[C@H](CCN)NC1=O` [Example 1152] ({CH2CO}-[Ala(morpholin-4-yl)]Y(Carboxymethyl)D[Phe(3-CF3)][Phe(4-COOH)][Bip]Q[NMeA][dL][Dab][Cha][Val(3-OH)]SC[Dab]-{NH(CH2)12COOH}; thioether N-14) showed a pIC50 of 7.93.
`CC(=O)NCCCC[C@@H]1NC(=O)[C@H](C(C)(C)O)NC(=O)[C@H](CC2CCCCC2)NC(=O)[C@H](CCN)NC(=O)[C@@H](CC(C)C)NC(=O)[C@H](C)N(C)C(=O)[C@H](CCC(N)=O)NC(=O)[C@H](Cc2ccc(-c3ccccc3)cc2)NC(=O)[C@H](Cc2ccc(C(=O)O)cc2)NC(=O)[C@H](Cc2cccc(C(F)(F)F)c2)NC(=O)[C@H](CC(=O)O)NC(=O)[C@H](Cc2ccc(OCC(=O)O)cc2)NC(=O)[C@H](CN2CCOCC2)NC(=O)CSC[C@@H](C(=O)N[C@@H](CCN)C(=O)NCCCCCCCCCCCCC(=O)O)NC1=O` [Example 1153] ({CH2CO}-[Ala(morpholin-4-yl)]Y(Carboxymethyl)D[Phe(3-CF3)][Phe(4-COOH)][Bip]Q[NMeA][dL][Dab][Cha][Val(3-OH)]K(Ac)C[Dab]-{NH(CH2)12COOH}; thioether N-14) showed a pIC50 of 7.89.
In the case of `CC(C)C[C@H]1NC(=O)[C@H](C)N(C)C(=O)[C@H](CCCNC(N)=O)NC(=O)[C@H](Cc2ccc(-c3ccccc3)cc2)NC(=O)[C@H](Cc2ccc(C(=O)O)cc2)NC(=O)[C@H](Cc2cccc(C(F)(F)F)c2)NC(=O)[C@H](CC(=O)O)NC(=O)[C@H](Cc2ccc(OCC(=O)O)cc2)NC(=O)[C@H](CN2CCOCC2)NC(=O)CSC[C@@H](C(=O)N[C@@H](CCN)C(=O)NCCCCCCCCCCCCC(=O)O)NC(=O)[C@H](CC(=O)O)NC(=O)[C@H](C(C)(C)O)NC(=O)[C@H](CC2CCCCC2)NC(=O)[C@H](CCN)NC1=O` [Example 1154] ({CH2CO}-[Ala(morpholin-4-yl)]Y(Carboxymethyl)D[Phe(3-CF3)][Phe(4-COOH)][Bip][Cit][NMeA][dL][Dab][Cha][Val(3-OH)]DC[Dab]-{NH(CH2)12COOH}; thioether N-14), the pIC50 was 7.81.
Work on `CC(C)C[C@H]1NC(=O)[C@H](C)N(C)C(=O)[C@H](CCCNC(N)=O)NC(=O)[C@H](Cc2ccc(-c3ccccc3)cc2)NC(=O)[C@H](Cc2ccc(C(=O)O)cc2)NC(=O)[C@H](Cc2cccc(C(F)(F)F)c2)NC(=O)[C@H](CC(=O)O)NC(=O)[C@H](Cc2ccc(OCC(=O)O)cc2)NC(=O)[C@H](CN2CCOCC2)NC(=O)CSC[C@@H](C(=O)N[C@@H](CCN)C(=O)NCCCCCCCCCCCCC(=O)O)NC(=O)[C@H](CCC(=O)O)NC(=O)[C@H](C(C)C)NC(=O)[C@H](CC2CCCCC2)NC(=O)[C@H](CCN)NC1=O` [Example 1155] ({CH2CO}-[Ala(morpholin-4-yl)]Y(Carboxymethyl)D[Phe(3-CF3)][Phe(4-COOH)][Bip][Cit][NMeA][dL][Dab][Cha]VEC[Dab]-{NH(CH2)12COOH}; thioether N-14) yielded a pIC50 of 8.07.
